Where two headings read alike, the source gives them in different places.
Assays:
[1] = system: HpeG-2 cells; test: MTT tumor cell growth inhibition, HpeG-2; type: cell-based; conditions: 48 h, read-out: Tumors growth-inhibitory activity (IC50) HpeG-2
Protocol: (§1) Using MTT method to determine the growth inhibition activity of the matrine compounds on Lovo, MGC-803, Mia-paca2, HpeG-2, A549, k562, and Panc-1 cells in vitro. Logarithmic growth phase of Lovo, MGC-803, Mia-paca2, HpeG-2, A549, k562, Panc-1 cells were inoculated into 96-well plates (purchased from Institute of Biochemical Cells, Chinese Academy of Sciences, and cultured according to conventional tumor cell culture methods) at a density of 4×10^4/mL and 180 μL/well; after the cells adhered to the wall, 20 μL of drug solution was added to each well and matined the final drug concentrations were 0.1 μM, 1 μM, 10 μM, 50 μM, 100 μM respectively. After 48 h, 5 mg/mL MTT solution was added (20 μL/well) and maintained in a CO2 incubator for 3-4 h. After that, discarding the supernatant carefully, and DMSO was added (200 μL/well) when the residual liquid was air-dried, and shook for 0.5-1 h until the residual crystals was dissolved. The absorbance OD was measured at 492 nm by a microplate reader. GraphPad Prism 5 software was used to calculate the IC50 value.

[2] = system: Mia-paca2 cells; test: MTT tumor cell growth inhibition, Mia-paca2; type: cell-based; conditions: read-out: Tumors growth-inhibitory activity (IC50) Mia-paca2
Protocol: as §1

[3] = system: MGC-803 cells; test: MTT tumor cell growth inhibition, MGC-803; type: cell-based; conditions: 48 h, read-out: Tumors growth-inhibitory activity (IC50) MGC-803
Protocol: as §1

[4] = system: k562 cells; test: MTT tumor cell growth inhibition, k562; type: cell-based; conditions: 48 h, read-out: Tumors growth-inhibitory activity (IC50) k562
Protocol: as §1

[5] = system: A549 cells; test: MTT tumor cell growth inhibition, A549; type: cell-based; conditions: 48 h, read-out: Tumors growth-inhibitory activity (IC50) A549
Protocol: as §1

[6] = system: Panc-1 cells; test: MTT tumor cell growth inhibition, Panc-1; type: cell-based; conditions: 48 h, read-out: Tumors growth-inhibitory activity (IC50) Panc-1
Protocol: as §1

[7] = system: Lovo cells; test: MTT tumor cell growth inhibition, Lovo; type: cell-based; conditions: 48 h, read-out: Tumors growth-inhibitory activity (IC50) Lovo
Protocol: as §1

[8] = system: TNF-α; test: TNF-α activity inhibiting assay (LPS-stimulated peripheral blood, ELISA); type: cell-based, human; conditions: compound 20 μM, LPS 10 ng/mL, 6 hours, diluted peripheral blood of healthy volunteers; for inhibition at 20 µM: Homo sapiens, read-out: TNF-α inhibition rate (%)
Protocol: Methods: Peripheral blood from healthy volunteers was collected with EDTA anticoagulant tubes. After being diluted 5-fold with 1640 medium (Gibco, USA), the blood was added to 96-well cell culture plates (Costar, USA) and then treated with 10 μL solution of the compound of general formula (I) of the present invention in DMSO (Sigma, USA), the final concentration of the compound was 20 μM with the final concentration of DMSO was 0.2%. After incubation for 60 minutes in an incubator at 37° C. under 5% CO2, 10 μL LPS (Sigma, USA) was added to the reaction system, and the final concentration was 10 ng/mL. After further culturing for 6 hours in the incubator at 37° C. under 5% CO2, the supernatant was collected. The content of TNF-α was determined by ELISA (BD Biosciences, USA). Absorbance was detected at OD450 nm with a microplate reader, with OD 650 nm as reference. The control, a solution containing 0.2% DMSO medium, was as 0% inhibition. Raw data and standard curves were recorded. The four-parameter drug inhibition curve was plotted by XL-fit software and the inhibition rate of each compound was calculated.

## COc1ccc2c(c1)C(=O)N(C1CC[C@@H]3[C@H]4CCCN5CCC[C@@H](CN3C1=O)[C@@H]45)C2=O (some centres unmarked) [GJD 16]
[1]
  IC50: < 50 µM
[2]; Homo sapiens, MIA PaCa-2, 48 h
  IC50: 50 to 100 µM
[3]; Homo sapiens
  IC50: 50 to 100 µM
[4]; Homo sapiens
  IC50: 50 to 100 µM
[5]; Homo sapiens
  IC50: > 100 µM
[6]; Homo sapiens
  IC50: > 100 µM
[7]; Homo sapiens
  IC50: 50 to 100 µM

## O=C1c2ccccc2C(=O)N1C1CC[C@@H]2[C@H]3CCCN4CCC[C@H](CN2C1=O)[C@@H]34 (some centres unmarked) [GJD 28]
[8]
  inhibition at 20 µM: > 50%

## O=C1c2cccc(O)c2C(=O)N1C1CC[C@@H]2[C@H]3CCCN4CCC[C@@H](CN2C1=O)[C@@H]34 (some centres unmarked) [GJD 10]
[8]
  TNF-α inhibition rate (%): ≥50%

## Cc1cccc2c1CN(C1CC[C@@H]3[C@H]4CCCN5CCC[C@H](CN3C1=O)[C@@H]45)C2=O (some centres unmarked) [GJD 44]
[8]
  inhibition at 20 µM: > 50%

## COc1ccc(C(=O)NC2CC[C@@H]3[C@H]4CCCN5CCC[C@@H](CN3C2=O)[C@@H]45)cc1OC1CCCC1 (some centres unmarked) [GJD 53]
[8]
  inhibition at 20 µM: > 50%

## Nc1ccccc1C(=O)NC1CC[C@@H]2[C@H]3CCCN4CCC[C@@H](CN2C1=O)[C@@H]34 (some centres unmarked) [GJD 49]
[8]
  inhibition at 20 µM: > 50%

## O=C1c2cccc(Cl)c2C(=O)N1C1CC[C@@H]2[C@H]3CCCN4CCC[C@@H](CN2C1=O)[C@@H]34 (some centres unmarked) [GJD 04]
[8]
  inhibition at 20 µM: > 50%

## O=C1CCC[C@@H]2[C@H]3CCCN4CCC[C@H](CN12)[C@@H]34 [Sophoridine, sophoridine, reference compound]
[8]
  inhibition at 20 µM: < 50%

## CC(=O)Nc1cccc2c1CN(C1CC[C@@H]3[C@H]4CCCN5CCC[C@@H](CN3C1=O)[C@@H]45)C2=O (some centres unmarked) [GJD 33]
[8]
  inhibition at 20 µM: > 50%

## CS(=O)(=O)Nc1cccc2c1C(=O)N(C1CC[C@@H]3[C@H]4CCCN5CCC[C@@H](CN3C1=O)[C@@H]45)C2=O (some centres unmarked) [GJD 14]
[8]
  inhibition at 20 µM: > 50%

## Nc1ccc(S(=O)(=O)NC2=CC[C@@H]3[C@H]4CCCN5CCC[C@@H](CN3C2=O)[C@@H]45)cc1 [GJD 47]
[1]
  IC50: 50 to 100 µM
[2]; Homo sapiens, MIA PaCa-2, 48 h
  IC50: > 100 µM
[3]; Homo sapiens
  IC50: > 100 µM
[4]; Homo sapiens
  IC50: 50 to 100 µM
[5]; Homo sapiens
  IC50: 50 to 100 µM
[6]; Homo sapiens
  IC50: > 100 µM
[7]; Homo sapiens
  IC50: 50 to 100 µM

## Nc1ccc2c(c1)C(=O)N(C1CC[C@@H]3[C@H]4CCCN5CCC[C@@H](CN3C1=O)[C@@H]45)C2=O (some centres unmarked) [GJD 18]
[8]
  inhibition at 20 µM: < 50%

## CC(=O)Nc1cccc2c1C(=O)N(C1CC[C@@H]3[C@H]4CCCN5CCC[C@@H](CN3C1=O)[C@@H]45)C2=O (some centres unmarked) [GJD 13]
[8]
  inhibition at 20 µM: > 50%

## O=C1c2cccc(F)c2C(=O)N1C1CC[C@@H]2[C@H]3CCC[N+]4([O-])CCC[C@@H](CN2C1=O)[C@@H]34 (some centres unmarked) [GJD 65]
[8]
  TNF-α inhibition rate (%): ≥50%

## NC1CC[C@@H]2[C@H]3CCCN4CCC[C@@H](CN2C1=O)[C@@H]34 (some centres unmarked) [Compound M-3, 14-amino-matrine]
[1]
  IC50: 50 to 100 µM
[2]; Homo sapiens, MIA PaCa-2, 48 h
  IC50: > 100 µM
[3]; Homo sapiens
  IC50: > 100 µM
[4]; Homo sapiens
  IC50: 50 to 100 µM
[5]; Homo sapiens
  IC50: 50 to 100 µM
[6]; Homo sapiens
  IC50: > 100 µM
[7]; Homo sapiens
  IC50: 50 to 100 µM

## O=C1[C@@H](N2C(=O)c3ccccc3C2=O)CC[C@@H]2[C@H]3CCCN4CCC[C@@H](CN12)[C@@H]34 [GJD 25]
[1]
  IC50: 50 to 100 µM
[2]; Homo sapiens, MIA PaCa-2, 48 h
  IC50: > 100 µM
[3]; Homo sapiens
  IC50: > 100 µM
[4]; Homo sapiens
  IC50: 50 to 100 µM
[5]; Homo sapiens
  IC50: 50 to 100 µM
[6]; Homo sapiens
  IC50: > 100 µM
[7]; Homo sapiens
  IC50: 50 to 100 µM

## Cc1cccc2c1C(=O)N(C1CC[C@@H]3[C@H]4CCCN5CCC[C@@H](CN3C1=O)[C@@H]45)C2=O (some centres unmarked) [GJD 08]
[8]
  inhibition at 20 µM: > 50%

## COc1cccc2c1C(=O)N(C1CC[C@@H]3[C@H]4CCCN5CCC[C@@H](CN3C1=O)[C@@H]45)C2=O (some centres unmarked) [GJD 09]
[8]
  inhibition at 20 µM: > 50%

## O=C1c2cccc([N+](=O)[O-])c2C(=O)N1C1CC[C@@H]2[C@H]3CCCN4CCC[C@@H](CN2C1=O)[C@@H]34 (some centres unmarked) [GJD 05]
[8]
  inhibition at 20 µM: > 50%

## COc1cc2c(cc1OC)C(=O)N(C1CC[C@@H]3[C@H]4CCCN5CCC[C@@H](CN3C1=O)[C@@H]45)C2=O (some centres unmarked) [GJD 19]
[8]
  inhibition at 20 µM: < 50%

## O=C(Nc1cccc2c1CN(C1CC[C@@H]3[C@H]4CCCN5CCC[C@@H](CN3C1=O)[C@@H]45)C2=O)c1ccccc1 (some centres unmarked) [GJD 34]
[1]
  IC50: < 50 µM
[2]; Homo sapiens, MIA PaCa-2, 48 h
  IC50: 50 to 100 µM
[3]; Homo sapiens
  IC50: 50 to 100 µM
[4]; Homo sapiens
  IC50: < 50 µM
[5]; Homo sapiens
  IC50: 50 to 100 µM
[6]; Homo sapiens
  IC50: 50 to 100 µM
[7]; Homo sapiens
  IC50: 50 to 100 µM

## Nc1cccc2c1C(=O)N(C1CC[C@@H]3[C@H]4CCCN5CCC[C@H](CN3C1=O)[C@@H]45)C2=O (some centres unmarked) [GJD 27]
[8]
  inhibition at 20 µM: > 50%

## O=C1c2cccc(F)c2C(=O)N1C1CC[C@@H]2[C@H]3CCCN4CCC[C@@H](CN2C1=O)[C@@H]34 (some centres unmarked) [GJD 03]
[8]
  inhibition at 20 µM: > 50%

## CC(C)Nc1cccc2c1C(=O)N(C1CC[C@@H]3[C@H]4CCCN5CCC[C@@H](CN3C1=O)[C@@H]45)C2=O (some centres unmarked) [GJD 12]
[8]
  inhibition at 20 µM: > 50%

## C#Cc1cccc2c1C(=O)N(C1CC[C@@H]3[C@H]4CCCN5CCC[C@@H](CN3C1=O)[C@@H]45)C2=O (some centres unmarked) [GJD 11]
[8]
  inhibition at 20 µM: < 50%

## Cc1cccc2c1CN(C1CC[C@@H]3[C@H]4CCCN5CCC[C@@H](CN3C1=O)[C@@H]45)C2=O (some centres unmarked) [GJD 38]
[8]
  TNF-α inhibition rate (%): >50%

## O=C(NC1CC[C@@H]2[C@H]3CCCN4CCC[C@@H](CN2C1=O)[C@@H]34)c1ccccc1O (some centres unmarked) [GJD 50]
[8]
  inhibition at 20 µM: > 50%

## O=C1c2ccccc2CN1C1CC[C@@H]2[C@H]3CCCN4CCC[C@@H](CN2C1=O)[C@@H]34 (some centres unmarked) [GJD 30]
[8]
  inhibition at 20 µM: < 50%

## O=C1CCC[C@@H]2[C@H]3CCC[N+]4([O-])CCC[C@@H](CN12)[C@@H]34 (some centres unmarked) [Oxymatrine, oxymatrine, reference compound]
[8]
  inhibition at 20 µM: < 50%

## Nc1cccc2c1CN(C1CC[C@@H]3[C@H]4CCCN5CCC[C@@H](CN3C1=O)[C@@H]45)C2=O (some centres unmarked) [GJD 35]
[8]
  inhibition at 20 µM: > 50%

## Nc1ccc2c(c1)C(=O)N(C1CC[C@@H]3[C@H]4CCCN5CCC[C@@H](CN3C1=O)[C@@H]45)C2 (some centres unmarked) [GJD 41]
[8]
  inhibition at 20 µM: > 50%

## Cc1cccc2c1C(=O)N(C1=CC[C@@H]3[C@H]4CCCN5CCC[C@@H](CN3C1=O)[C@@H]45)C2=O [GJD 24]
[1]
  IC50: < 50 µM
[2]; 48 h
  IC50: 50 to 100 µM
[3]
  IC50: 50 to 100 µM
[4]
  IC50: < 50 µM
[5]
  IC50: < 50 µM
[6]
  IC50: 50 to 100 µM
[7]
  IC50: < 50 µM

## CCOc1cc(C(=O)NC2CC[C@@H]3[C@H]4CCCN5CCC[C@@H](CN3C2=O)[C@@H]45)ccc1OC (some centres unmarked) [GJD 54]
[8]
  inhibition at 20 µM: > 50%

## Cc1cccc2c1C(=O)N(C1CC[C@@H]3[C@H]4CCCN5CCC[C@H](CN3C1=O)[C@@H]45)C2=O (some centres unmarked) [GJD 29]
[8]
  inhibition at 20 µM: > 50%

## O=C1c2ccccc2C(=O)N1C1=CC[C@@H]2[C@H]3CCCN4CCC[C@@H](CN2C1=O)[C@@H]34 [GJD 22]
[8]
  inhibition at 20 µM: > 50%

From patent US20210221812A1, “MATRINE a-KETOAMINE COMPOUNDS, PREPARATION METHOD THEREFOR AND USE THEREOF” (SHANGHAI XINGYE PHARMACEUTICAL TECHNOLOGY CO., LTD, priority 2018, published 2021)
